Legend:
[1] = biological target: Matrix metalloproteinase-9 (Homo sapiens, UniProt P14780); experiment: biochemical; type: cell-based;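 also: inhibition of isolated MMP-9 enzyme activity toward a synthetic peptide substrate, from the DrugMatrix protease screening panel; in other assays of this panel Not Active means under 50% inhibition at 10 µM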
[2] = biological target: Platelet-activating factor receptor (Homo sapiens, UniProt P25105); experiment: biochemical; type: tissue-based; settings: platelet; also: in other assays of this panel Not Active means under 50% inhibition at 10 µM
Chain of Platelet-activating factor receptor (P25105 whole entry): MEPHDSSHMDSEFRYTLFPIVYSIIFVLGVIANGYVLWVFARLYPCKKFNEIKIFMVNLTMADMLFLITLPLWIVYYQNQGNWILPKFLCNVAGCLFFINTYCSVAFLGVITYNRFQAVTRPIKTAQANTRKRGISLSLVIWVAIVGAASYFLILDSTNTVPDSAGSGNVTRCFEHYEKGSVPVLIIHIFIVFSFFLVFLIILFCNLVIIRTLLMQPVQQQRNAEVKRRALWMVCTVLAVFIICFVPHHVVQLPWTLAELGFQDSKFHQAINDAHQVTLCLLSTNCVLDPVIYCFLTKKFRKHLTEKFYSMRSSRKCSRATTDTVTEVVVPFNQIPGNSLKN

Adenosine receptor A1 = biological target: T1, Adenosine receptor A1 (Homo sapiens, UniProt P30542); type: cell membranes, CHO, Membrane; settings: cho;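 also: radioligand binding assay at the adenosine A1 receptor, with DPCPX serving as the labelled ligand; in other assays of this panel Not Active means under 50% inhibition at 10 µM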
T1 sequence (P30542 whole entry): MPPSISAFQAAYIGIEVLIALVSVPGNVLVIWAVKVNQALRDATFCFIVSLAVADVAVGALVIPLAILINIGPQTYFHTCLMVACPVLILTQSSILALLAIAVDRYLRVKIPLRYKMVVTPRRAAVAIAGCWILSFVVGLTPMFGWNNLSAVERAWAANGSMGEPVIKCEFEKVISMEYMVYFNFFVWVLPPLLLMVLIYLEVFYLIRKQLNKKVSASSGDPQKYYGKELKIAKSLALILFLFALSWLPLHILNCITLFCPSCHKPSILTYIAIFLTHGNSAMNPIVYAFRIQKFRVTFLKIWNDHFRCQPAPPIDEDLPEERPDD

[3] = biological target: T2, Angiotensin-converting enzyme (Oryctolagus cuniculus, UniProt P12822); type: tissue-based, Lung;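 also: enzymatic inhibition of angiotensin-converting enzyme measured with FAPGG as the substrate; in other assays of this panel Not Active means under 50% inhibition at 10 µM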
T2 sequence (P12822 whole entry): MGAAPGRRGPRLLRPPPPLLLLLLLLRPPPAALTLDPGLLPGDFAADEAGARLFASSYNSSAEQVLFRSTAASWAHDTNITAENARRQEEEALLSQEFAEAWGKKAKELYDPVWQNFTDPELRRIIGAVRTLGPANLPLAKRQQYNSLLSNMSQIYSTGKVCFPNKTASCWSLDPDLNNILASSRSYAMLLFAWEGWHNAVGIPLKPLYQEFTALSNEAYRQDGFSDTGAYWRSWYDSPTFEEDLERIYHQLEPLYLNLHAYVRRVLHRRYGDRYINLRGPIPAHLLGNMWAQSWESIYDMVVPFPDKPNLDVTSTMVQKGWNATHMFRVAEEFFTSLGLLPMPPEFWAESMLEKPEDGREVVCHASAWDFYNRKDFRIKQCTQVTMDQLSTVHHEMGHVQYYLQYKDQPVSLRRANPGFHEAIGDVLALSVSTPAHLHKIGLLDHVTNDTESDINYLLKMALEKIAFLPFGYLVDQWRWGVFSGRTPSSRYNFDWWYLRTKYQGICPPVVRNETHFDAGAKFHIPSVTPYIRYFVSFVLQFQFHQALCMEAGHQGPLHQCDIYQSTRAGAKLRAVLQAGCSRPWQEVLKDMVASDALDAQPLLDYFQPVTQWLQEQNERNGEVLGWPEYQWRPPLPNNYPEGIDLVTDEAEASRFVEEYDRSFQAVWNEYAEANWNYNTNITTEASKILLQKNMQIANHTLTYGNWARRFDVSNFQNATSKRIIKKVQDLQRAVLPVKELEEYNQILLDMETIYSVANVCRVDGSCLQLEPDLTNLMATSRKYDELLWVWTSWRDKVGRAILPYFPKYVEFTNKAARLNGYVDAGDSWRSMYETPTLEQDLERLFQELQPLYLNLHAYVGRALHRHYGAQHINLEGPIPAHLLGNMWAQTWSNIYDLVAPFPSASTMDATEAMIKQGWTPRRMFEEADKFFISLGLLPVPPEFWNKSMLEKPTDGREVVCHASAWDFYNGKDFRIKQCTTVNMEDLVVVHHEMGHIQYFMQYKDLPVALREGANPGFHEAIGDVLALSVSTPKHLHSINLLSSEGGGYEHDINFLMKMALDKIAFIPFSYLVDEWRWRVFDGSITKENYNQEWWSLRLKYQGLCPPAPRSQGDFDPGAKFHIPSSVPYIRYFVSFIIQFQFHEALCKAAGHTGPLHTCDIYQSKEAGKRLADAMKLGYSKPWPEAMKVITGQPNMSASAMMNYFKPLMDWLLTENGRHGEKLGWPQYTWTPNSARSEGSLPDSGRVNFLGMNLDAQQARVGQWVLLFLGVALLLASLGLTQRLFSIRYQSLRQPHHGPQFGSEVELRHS

[4] = biological target: T3, C-C chemokine receptor type 4 (Homo sapiens, UniProt P51679); type: cell membranes, Membrane; settings: chem-1; also: in other assays of this panel Not Active means under 50% inhibition at 10 µM
T3 sequence (P51679 whole entry): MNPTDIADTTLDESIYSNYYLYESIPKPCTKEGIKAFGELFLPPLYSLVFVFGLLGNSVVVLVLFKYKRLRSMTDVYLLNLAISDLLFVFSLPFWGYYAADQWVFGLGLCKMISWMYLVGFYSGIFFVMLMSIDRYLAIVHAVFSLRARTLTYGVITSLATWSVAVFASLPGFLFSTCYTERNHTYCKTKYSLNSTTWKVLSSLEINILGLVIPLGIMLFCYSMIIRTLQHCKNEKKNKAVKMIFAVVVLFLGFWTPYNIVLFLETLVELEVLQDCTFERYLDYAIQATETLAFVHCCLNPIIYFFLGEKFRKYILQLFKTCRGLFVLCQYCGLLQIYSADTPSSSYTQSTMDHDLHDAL

[5] = biological target: T4, Cysteinyl leukotriene receptor 1 (Homo sapiens, UniProt Q9Y271); type: cell membranes, Membrane; settings: cho-k1; also: in other assays of this panel Not Active means under 50% inhibition at 10 µM
T4 sequence (Q9Y271 whole entry): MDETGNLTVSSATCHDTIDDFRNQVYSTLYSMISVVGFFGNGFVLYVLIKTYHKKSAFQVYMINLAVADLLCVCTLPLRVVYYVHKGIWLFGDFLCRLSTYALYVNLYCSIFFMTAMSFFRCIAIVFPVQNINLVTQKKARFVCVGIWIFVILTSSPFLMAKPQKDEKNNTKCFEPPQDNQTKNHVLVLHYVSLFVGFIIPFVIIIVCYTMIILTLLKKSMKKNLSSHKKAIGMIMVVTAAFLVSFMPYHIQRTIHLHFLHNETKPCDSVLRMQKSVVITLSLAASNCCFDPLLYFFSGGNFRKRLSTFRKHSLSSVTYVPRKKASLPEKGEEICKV

[6] = biological target: Mitogen-activated protein kinase 1 (Homo sapiens, UniProt P28482); experiment: DRUGMATRIX: Protein Serine/Threonine Kinase, ERK2 enzyme inhibition (substrate: Myelin Basic Protein); design: species or system Escherichia coli; settings: Not Active = under 50% inhibition at 10 µM
Chain of Mitogen-activated protein kinase 1 (P28482 whole entry): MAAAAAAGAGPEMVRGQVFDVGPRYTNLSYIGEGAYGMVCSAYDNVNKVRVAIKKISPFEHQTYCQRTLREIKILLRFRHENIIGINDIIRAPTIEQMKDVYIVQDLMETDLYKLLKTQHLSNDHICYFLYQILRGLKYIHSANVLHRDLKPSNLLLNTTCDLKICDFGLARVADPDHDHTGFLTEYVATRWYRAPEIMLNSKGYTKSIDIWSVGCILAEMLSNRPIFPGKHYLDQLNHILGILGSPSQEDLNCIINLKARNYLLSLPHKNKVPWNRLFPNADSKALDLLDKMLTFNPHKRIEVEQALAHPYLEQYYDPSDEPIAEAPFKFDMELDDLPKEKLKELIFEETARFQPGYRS

Chain of Matrix metalloproteinase-9 (P14780 whole entry): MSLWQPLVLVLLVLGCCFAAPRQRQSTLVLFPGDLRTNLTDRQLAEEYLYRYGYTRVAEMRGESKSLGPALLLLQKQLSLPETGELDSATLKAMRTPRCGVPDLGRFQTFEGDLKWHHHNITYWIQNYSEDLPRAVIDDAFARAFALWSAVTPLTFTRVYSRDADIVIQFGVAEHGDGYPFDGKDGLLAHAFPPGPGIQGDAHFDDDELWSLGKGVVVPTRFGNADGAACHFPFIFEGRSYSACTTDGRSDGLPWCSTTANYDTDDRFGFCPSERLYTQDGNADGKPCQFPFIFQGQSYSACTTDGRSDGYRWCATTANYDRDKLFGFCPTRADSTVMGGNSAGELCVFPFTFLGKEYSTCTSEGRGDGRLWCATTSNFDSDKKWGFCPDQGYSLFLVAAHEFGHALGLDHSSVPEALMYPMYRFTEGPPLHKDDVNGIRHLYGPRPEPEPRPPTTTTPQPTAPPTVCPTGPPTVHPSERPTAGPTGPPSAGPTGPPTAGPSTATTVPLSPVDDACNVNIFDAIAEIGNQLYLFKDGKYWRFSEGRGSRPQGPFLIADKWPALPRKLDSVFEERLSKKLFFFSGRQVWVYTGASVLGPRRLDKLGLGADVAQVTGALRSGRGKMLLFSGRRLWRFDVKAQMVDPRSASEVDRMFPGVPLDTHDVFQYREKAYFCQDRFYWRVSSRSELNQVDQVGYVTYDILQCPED

CN(Cc1cnc2nc(N)nc(N)c2n1)c1ccc(C(=O)N[C@@H](CCC(=O)O)C(=O)O)cc1 [METHOTREXATE]
Not Active: IC50 [1] | IC50 [2] | IC50 (Adenosine receptor A1) | IC50 [3] | IC50 [4] | IC50 [5] | IC50 [6]

COC(=O)c1ccccc1O [METHYL SALICYLATE]
Not Active: IC50 [1] | IC50 [2] | IC50 (Adenosine receptor A1) | IC50 [3] | IC50 [4] | IC50 [5] | IC50 [6]

COc1ccc2cc(CCC(C)=O)ccc2c1 [NABUMETONE]
Not Active: IC50 [1] | IC50 [2] | IC50 (Adenosine receptor A1) | IC50 [3] | IC50 [4] | IC50 [5] | IC50 [6]

O=C(O)c1cccnc1 [NIACIN]
Not Active: IC50 [1] | IC50 [2] | IC50 (Adenosine receptor A1) | IC50 [3] | IC50 [4] | IC50 [5] | IC50 [6]

CNC(=C[N+](=O)[O-])NCCSCc1csc(CN(C)C)n1 [NIZATIDINE]
Not Active: IC50 [1] | IC50 [2] | IC50 (Adenosine receptor A1) | IC50 [3] | IC50 [4] | IC50 [5] | IC50 [6]

C[C@]12C/C(=C/O)C(=O)C[C@@H]1CC[C@@H]1[C@@H]2CC[C@@]2(C)[C@H]1CC[C@]2(C)O [OXYMETHOLONE]
Not Active: IC50 [1] | IC50 [2] | IC50 (Adenosine receptor A1) | IC50 [3] | IC50 [4] | IC50 [5] | IC50 [6]

CC(C)(CO)C(O)C(=O)NCCCO (centres undefined) [PANTHENOL]
Not Active: IC50 [1] | IC50 [2] | IC50 (Adenosine receptor A1) | IC50 [3] | IC50 [4] | IC50 [5] | IC50 [6]

COc1ccc(Cc2nccc3cc(OC)c(OC)cc23)cc1OC [PAPAVERINE]
Not Active: IC50 [1] | IC50 [2] | IC50 (Adenosine receptor A1) | IC50 [3] | IC50 [4] | Ki [5] | IC50 [6]

OCCN1CCN(CCCN2c3ccccc3Sc3ccc(Cl)cc32)CC1 [PERPHENAZINE]
Not Active: IC50 [1] | IC50 [2] | IC50 (Adenosine receptor A1) | IC50 [3] | IC50 [4] | IC50 [5] | IC50 [6]

CCCCC1C(=O)N(c2ccccc2)N(c2ccccc2)C1=O [PHENYLBUTAZONE]
Not Active: IC50 [1] | IC50 [2] | IC50 (Adenosine receptor A1) | IC50 [3] | IC50 [4] | IC50 [5] | IC50 [6]

Cc1cccc(Nc2cc(Cl)nc(SCC(=O)O)n2)c1C [PIRINIXIC ACID]
Not Active: IC50 [1] | IC50 [2] | IC50 (Adenosine receptor A1) | IC50 [3] | IC50 [4] | IC50 [5] | IC50 [6]

CC[C@H](C)C(=O)O[C@H]1C[C@H](O)C=C2C=C[C@H](C)[C@H](CC[C@@H](O)C[C@@H](O)CC(=O)O)[C@H]21 [PRAVASTATIN]
Not Active: IC50 [1] | IC50 [2] | IC50 (Adenosine receptor A1) | IC50 [3] | IC50 [4] | IC50 [5] | IC50 [6]

CC(C)(Sc1cc(C(C)(C)C)c(O)c(C(C)(C)C)c1)Sc1cc(C(C)(C)C)c(O)c(C(C)(C)C)c1 [PROBUCOL]
Not Active: IC50 [1] | IC50 [2] | IC50 (Adenosine receptor A1) | IC50 [3] | IC50 [4] | IC50 [5] | IC50 [6]

COBALT(II) ACETYLACETONATE
Not Active: IC50 [1] | Ki [1] | IC50 [2] | Ki [2] | IC50 (Adenosine receptor A1) | Ki (Adenosine receptor A1) | IC50 [3] | Ki [3] | IC50 [4] | Ki [4] | IC50 [5] | Ki [5] | IC50 [6] | Ki [6]

INSULIN HUMAN
Not Active: IC50 [1] | Ki [1] | IC50 [2] | Ki [2] | IC50 (Adenosine receptor A1) | Ki (Adenosine receptor A1) | IC50 [3] | Ki [3] | IC50 [4] | Ki [4] | IC50 [5] | Ki [5] | IC50 [6] | Ki [6]

From ChEMBL document CHEMBL1909046, “DrugMatrix in vitro pharmacology data”
